Experimental data as given in ChEMBL document CHEMBL1151232, “First synthesis and determination of the absolute configuration of sulphostin, a novel inhibitor of dipeptidyl peptidase IV” (J Nat Prod, 2004).

Tests used:
[1] = target: Dipeptidyl peptidase 4 (Rattus norvegicus) (UniProt P14740); conditions: 0.5 ng/ml
Description: Inhibition of rat kidney DPP4 at 0.5 ng/ml

[2] = target: Dipeptidyl peptidase 4 (Rattus norvegicus) (UniProt P14740); conditions: 1 ng/ml
Description: Inhibition of rat kidney DPP4 at 1 ng/ml

[3] = target: Dipeptidyl peptidase 4 (Rattus norvegicus) (UniProt P14740); conditions: 2 ng/ml
Description: Inhibition of rat kidney DPP4 at 2 ng/ml

[4] = target: Dipeptidyl peptidase 4 (Rattus norvegicus) (UniProt P14740); conditions: 4 ng/ml
Description: Inhibition of rat kidney DPP4 at 4 ng/ml

[5] = target: Dipeptidyl peptidase 4 (Rattus norvegicus) (UniProt P14740); conditions: 8 ng/ml
Description: Inhibition of rat kidney DPP4 at 8 ng/ml

[6] = target: Dipeptidyl peptidase 4 (Rattus norvegicus) (UniProt P14740); conditions: 16 ng/ml
Description: Inhibition of rat kidney DPP4 at 16 ng/ml

[7] = target: Dipeptidyl peptidase 4 (Rattus norvegicus) (UniProt P14740); conditions: 32 ng/ml
Description: Inhibition of rat kidney DPP4 at 32 ng/ml

[8] = target: Dipeptidyl peptidase 4 (Rattus norvegicus) (UniProt P14740); conditions: 64 ng/ml
Description: Inhibition of rat kidney DPP4 at 64 ng/ml

Dipeptidyl peptidase 4 (Rattus norvegicus), sequence (P14740 whole entry, looked up): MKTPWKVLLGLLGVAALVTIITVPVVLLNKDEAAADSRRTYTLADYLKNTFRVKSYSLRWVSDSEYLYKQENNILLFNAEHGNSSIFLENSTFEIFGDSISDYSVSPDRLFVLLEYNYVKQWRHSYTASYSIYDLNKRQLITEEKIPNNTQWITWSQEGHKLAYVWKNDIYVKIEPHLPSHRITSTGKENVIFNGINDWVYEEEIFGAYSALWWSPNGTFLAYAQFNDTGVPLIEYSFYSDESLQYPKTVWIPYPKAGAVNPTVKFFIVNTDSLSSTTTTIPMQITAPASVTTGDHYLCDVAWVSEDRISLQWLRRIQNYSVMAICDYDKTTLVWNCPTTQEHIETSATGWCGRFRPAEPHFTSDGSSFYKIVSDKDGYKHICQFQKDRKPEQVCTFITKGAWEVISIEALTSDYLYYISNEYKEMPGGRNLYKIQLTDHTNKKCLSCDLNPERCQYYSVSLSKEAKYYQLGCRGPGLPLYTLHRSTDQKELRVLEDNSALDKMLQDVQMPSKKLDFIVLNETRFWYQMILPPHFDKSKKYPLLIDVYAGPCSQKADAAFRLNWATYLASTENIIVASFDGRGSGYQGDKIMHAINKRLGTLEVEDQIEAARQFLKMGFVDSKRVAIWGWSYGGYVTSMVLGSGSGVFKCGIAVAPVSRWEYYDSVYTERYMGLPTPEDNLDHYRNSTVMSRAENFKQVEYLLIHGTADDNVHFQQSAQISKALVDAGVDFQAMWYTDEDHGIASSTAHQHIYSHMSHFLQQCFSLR

N[C@H]1CCCN([P@@](N)(=O)NS(=O)(=O)O)C1=O
inhibition [1]: 15.9% | inhibition [2]: 20.2% | inhibition [3]: 30.6% | inhibition [4]: 41.9% | inhibition [5]: 54.4% | inhibition [6]: 66.9% | inhibition [7]: 77.4% | inhibition [8]: 84.5%
